Test results published in patent US8466155B2, “Pyrimidines” (Boehringer Ingelheim International GmbH, priority 2009, dated 2013).

Molecular target: T1, PTK2 (Homo sapiens, UniProt Q05397)
T1 construct: purchased Invitrogen PV3832
Assay: PTK2 enzyme test, Assay 2 (DELFIA, PT66 antibody)
Format: biochemical
Conditions: values marked (*), read-out: PTK2 1 h IC50
Text: This test uses active PTK2 enzyme (Invitrogen Code PV3832) and poly-Glu-Tyr (4:1, Sigma P-0275) as the kinase substrate. The kinase activity is detected by means of the phosphorylation of the substrate in a DELFIA™ assay. The phosphorylated substrate is detected with the europium-labelled phosphotyrosine antibody PT66 (Perkin Elmer, No.: AD0040).
In order to determine concentration-activity curves with PTK2-inhibitors the compounds are serially diluted first of all in 100% DMSO and then in kinase dilution buffer (20 mM TRIS/HCl pH 7.5, 0.1 mM EDTA, 0.1 mM EGTA, 0.286 mM sodium orthovanadate, 10% glycerol with the addition of freshly prepared BSA (fraction V, 1 mg/mL) and DTT (1 mM)) and 10 μL of each dilution are dispensed per well in a 96-well microtitre plate (clear U-shaped base plate, Greiner No. 650101) (the inhibitors are tested in duplicates) and mixed with 10 μL/well of PTK2 kinase (0.01 μg/well). PTK2 kinase is diluted accordingly beforehand with kinase dilution buffer. […]
The time-delayed europium fluorescence is then measured in a microtitre plate reader (VICTOR^3, Perkin Elmer). […]
The IC50 values are determined from concentration-activity analyses by iterative calculation using a sigmoid curve analysis algorithm (FIFTY, based on GraphPAD Prism Version 3.03) with a variable Hill coefficient.

T1 sequence (Q05397 whole entry): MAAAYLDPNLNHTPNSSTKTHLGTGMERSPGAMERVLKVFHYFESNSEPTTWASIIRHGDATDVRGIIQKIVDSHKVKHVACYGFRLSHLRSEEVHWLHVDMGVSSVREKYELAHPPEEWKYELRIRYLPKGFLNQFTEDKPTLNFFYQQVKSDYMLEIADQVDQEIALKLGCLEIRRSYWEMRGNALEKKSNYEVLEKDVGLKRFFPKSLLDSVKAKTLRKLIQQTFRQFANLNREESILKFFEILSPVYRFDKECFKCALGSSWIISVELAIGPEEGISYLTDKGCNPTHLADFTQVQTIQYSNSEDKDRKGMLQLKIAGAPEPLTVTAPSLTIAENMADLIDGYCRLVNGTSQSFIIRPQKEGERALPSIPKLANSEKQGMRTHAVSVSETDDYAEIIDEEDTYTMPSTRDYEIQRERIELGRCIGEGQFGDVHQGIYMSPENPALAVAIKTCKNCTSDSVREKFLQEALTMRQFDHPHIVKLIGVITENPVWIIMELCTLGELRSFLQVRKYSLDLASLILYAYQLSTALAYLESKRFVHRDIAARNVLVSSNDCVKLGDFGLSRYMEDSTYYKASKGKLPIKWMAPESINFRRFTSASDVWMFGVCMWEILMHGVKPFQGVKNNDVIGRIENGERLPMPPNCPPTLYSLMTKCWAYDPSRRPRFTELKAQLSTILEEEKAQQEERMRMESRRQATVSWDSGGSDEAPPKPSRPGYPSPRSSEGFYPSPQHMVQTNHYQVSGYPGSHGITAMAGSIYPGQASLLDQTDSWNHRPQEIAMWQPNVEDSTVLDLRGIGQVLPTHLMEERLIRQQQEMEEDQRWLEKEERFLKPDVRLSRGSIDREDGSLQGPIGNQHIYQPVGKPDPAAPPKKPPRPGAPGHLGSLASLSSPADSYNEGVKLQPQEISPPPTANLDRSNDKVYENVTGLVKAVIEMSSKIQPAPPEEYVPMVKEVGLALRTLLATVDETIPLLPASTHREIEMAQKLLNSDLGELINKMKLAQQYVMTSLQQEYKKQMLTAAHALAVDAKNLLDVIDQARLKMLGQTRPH

IC50	SMILES
0.85 nM	COc1cc(N2CCN(C(C)(C)C)CC2)ccc1Nc1ncc(C(F)(F)F)c(O[C@@H]2Cc3ccccc3[C@H]2N(C)S(C)(=O)=O)n1 [Example 90, N-((1R,2R)-2-{2-[4-(4-tert-butyl-piperazin-1-yl)-2-methoxy-phenylamino]-5-trifluoromethyl-pyrimidin-4-yloxy}-indan-1-yl)-N-methyl-methanesulphonamide]
0.4 nM	COc1ccc(C(=O)NC2CCN(C)CC2)cc1Nc1ncc(C(F)(F)F)c(O[C@@H]2Cc3ccccc3[C@H]2N(C)S(C)(=O)=O)n1 [Example 79, 3-{4-[(1R,2R)-1-(methanesulphonyl-methyl-amino)-indan-2-yloxy]-5-trifluoromethyl-pyrimidin-2-ylamino}-4-methoxy-N-(1-methyl-piperidin-4-yl)-benzamide]
